Literature values, collected in patent US20180338996A1, “COMBINATION THERAPY FOR TRAUMATIC BRAIN INJURY” (UNIVERSITY OF SOUTH FLORIDA, priority 2017, published 2018).

CCc1ccc(CCOc2ccc(CC3SC(=O)NC3=O)cc2)nc1 (centres unmarked) [PG, pioglitazone]
adverse effects in clinical use: weight gain, fluid retention, congestive heart failure, and bone fractures

CN(CCOc1ccc(CC2SC(=O)NC2=O)cc1)c1ccccn1 (centres unmarked) [rosiglitazone]
adverse effects in clinical use: weight gain, fluid retention, congestive heart failure, and bone fractures
